O=C1c2ccccc2-c2ccccc21
solubility (mole fraction) (in DMSO, 278.15 K): 0.0418 | solubility (mole fraction) (in DMSO, 283.15 K): 0.0609 | solubility (mole fraction) (in DMSO, 288.15 K): 0.0728 | solubility (mole fraction) (in DMSO, 293.15 K): 0.0855 | solubility (mole fraction) (in DMSO, 298.15 K): 0.112 | solubility (mole fraction) (in DMSO, 303.15 K): 0.142 | solubility (mole fraction) (in DMSO, 308.15 K): 0.178 | solubility (mole fraction) (in DMSO, 313.15 K): 0.216 | solubility (mole fraction) (in DMSO, 318.15 K): 0.306 | solubility (mole fraction) (in acetonitrile, 278.15 K): 0.0209 | solubility (mole fraction) (in acetonitrile, 283.15 K): 0.0311 | solubility (mole fraction) (in acetonitrile, 288.15 K): 0.0481 | solubility (mole fraction) (in acetonitrile, 293.15 K): 0.0657 | solubility (mole fraction) (in acetonitrile, 298.15 K): 0.102 | solubility (mole fraction) (in acetonitrile, 303.15 K): 0.134 | solubility (mole fraction) (in acetonitrile, 308.15 K): 0.201 | solubility (mole fraction) (in acetonitrile, 313.15 K): 0.281 | solubility (mole fraction) (in acetonitrile, 318.15 K): 0.358 | solubility (mole fraction) (in ethanol, 278.15 K): 0.0127 | solubility (mole fraction) (in ethanol, 283.15 K): 0.014 | solubility (mole fraction) (in ethanol, 288.15 K): 0.0164 | solubility (mole fraction) (in ethanol, 293.15 K): 0.0222 | solubility (mole fraction) (in ethanol, 298.15 K): 0.0267 | solubility (mole fraction) (in ethanol, 303.15 K): 0.0307 | solubility (mole fraction) (in ethanol, 308.15 K): 0.0428 | solubility (mole fraction) (in ethanol, 313.15 K): 0.0506 | solubility (mole fraction) (in ethanol, 318.15 K): 0.0693 | solubility (mole fraction) (in ethyl acetate, 278.15 K): 0.105 | solubility (mole fraction) (in ethyl acetate, 283.15 K): 0.137 | solubility (mole fraction) (in ethyl acetate, 288.15 K): 0.142 | solubility (mole fraction) (in ethyl acetate, 293.15 K): 0.172 | solubility (mole fraction) (in ethyl acetate, 298.15 K): 0.225 | solubility (mole fraction) (in ethyl acetate, 303.15 K): 0.243 | solubility (mole fraction) (in ethyl acetate, 308.15 K): 0.284 | solubility (mole fraction) (in ethyl acetate, 313.15 K): 0.35 | solubility (mole fraction) (in ethyl acetate, 318.15 K): 0.371 | solubility (mole fraction) (in ethyl formate, 278.15 K): 0.0907 | solubility (mole fraction) (in ethyl formate, 283.15 K): 0.111 | solubility (mole fraction) (in ethyl formate, 288.15 K): 0.14 | solubility (mole fraction) (in ethyl formate, 293.15 K): 0.163 | solubility (mole fraction) (in ethyl formate, 298.15 K): 0.22 | solubility (mole fraction) (in ethyl formate, 303.15 K): 0.25 | solubility (mole fraction) (in ethyl formate, 308.15 K): 0.32 | solubility (mole fraction) (in ethyl formate, 313.15 K): 0.366 | solubility (mole fraction) (in ethyl formate, 318.15 K): 0.409 | solubility (mole fraction) (in isobutanol, 278.15 K): 0.0156 | solubility (mole fraction) (in isobutanol, 283.15 K): 0.0207 | solubility (mole fraction) (in isobutanol, 288.15 K): 0.0241 | solubility (mole fraction) (in isobutanol, 293.15 K): 0.0305 | solubility (mole fraction) (in isobutanol, 298.15 K): 0.0387 | solubility (mole fraction) (in isobutanol, 303.15 K): 0.0504 | solubility (mole fraction) (in isobutanol, 308.15 K): 0.0622 | solubility (mole fraction) (in isobutanol, 313.15 K): 0.0745 | solubility (mole fraction) (in isobutanol, 318.15 K): 0.0963 | solubility (mole fraction) (in isopropanol, 278.15 K): 0.0087 | solubility (mole fraction) (in isopropanol, 283.15 K): 0.0119 | solubility (mole fraction) (in isopropanol, 288.15 K): 0.0152 | solubility (mole fraction) (in isopropanol, 293.15 K): 0.0217 | solubility (mole fraction) (in isopropanol, 298.15 K): 0.0273 | solubility (mole fraction) (in isopropanol, 303.15 K): 0.0384 | solubility (mole fraction) (in isopropanol, 308.15 K): 0.0472 | solubility (mole fraction) (in isopropanol, 313.15 K): 0.0592 | solubility (mole fraction) (in isopropanol, 318.15 K): 0.0801 | solubility (mole fraction) (in methanol, 278.15 K): 0.0037 | solubility (mole fraction) (in methanol, 283.15 K): 0.0044 | solubility (mole fraction) (in methanol, 288.15 K): 0.0059 | solubility (mole fraction) (in methanol, 293.15 K): 0.0084 | solubility (mole fraction) (in methanol, 298.15 K): 0.012 | solubility (mole fraction) (in methanol, 303.15 K): 0.0154 | solubility (mole fraction) (in methanol, 308.15 K): 0.0199 | solubility (mole fraction) (in methanol, 313.15 K): 0.0288 | solubility (mole fraction) (in methanol, 318.15 K): 0.0401 | solubility (mole fraction) (in n-butanol, 278.15 K): 0.0119 | solubility (mole fraction) (in n-butanol, 283.15 K): 0.0142 | solubility (mole fraction) (in n-butanol, 288.15 K): 0.0182 | solubility (mole fraction) (in n-butanol, 293.15 K): 0.0286 | solubility (mole fraction) (in n-butanol, 298.15 K): 0.0371 | solubility (mole fraction) (in n-butanol, 303.15 K): 0.0461 | solubility (mole fraction) (in n-butanol, 308.15 K): 0.0631 | solubility (mole fraction) (in n-butanol, 313.15 K): 0.0826 | solubility (mole fraction) (in n-butanol, 318.15 K): 0.113 | solubility (mole fraction) (in n-hexane, 278.15 K): 0.0038 | solubility (mole fraction) (in n-hexane, 283.15 K): 0.0047 | solubility (mole fraction) (in n-hexane, 288.15 K): 0.0054 | solubility (mole fraction) (in n-hexane, 293.15 K): 0.007 | solubility (mole fraction) (in n-hexane, 298.15 K): 0.0097 | solubility (mole fraction) (in n-hexane, 303.15 K): 0.0132 | solubility (mole fraction) (in n-hexane, 308.15 K): 0.0169 | solubility (mole fraction) (in n-hexane, 313.15 K): 0.0227 | solubility (mole fraction) (in n-hexane, 318.15 K): 0.0304 | solubility (mole fraction) (in n-propanol, 278.15 K): 0.0143 | solubility (mole fraction) (in n-propanol, 283.15 K): 0.0169 | solubility (mole fraction) (in n-propanol, 288.15 K): 0.0214 | solubility (mole fraction) (in n-propanol, 293.15 K): 0.0294 | solubility (mole fraction) (in n-propanol, 298.15 K): 0.0381 | solubility (mole fraction) (in n-propanol, 303.15 K): 0.0482 | solubility (mole fraction) (in n-propanol, 308.15 K): 0.0653 | solubility (mole fraction) (in n-propanol, 313.15 K): 0.083 | solubility (mole fraction) (in n-propanol, 318.15 K): 0.0997

— BigSolDB 2.1
